Laboratory results: article PMC12155096 (International Journal of Molecular Sciences, 2025)
pIC50: −log10 of the molar value. Read-outs that look alike come from different tables or passages of the source.

Legend:
[1] = biological target: Photinus pyralis (firefly) luciferase (Photinus pyralis, UniProt P08659); assay: biochemical; assay type: biochemical
human CYP1A2 = biological target: T1, human CYP1A2 (Homo sapiens, UniProt P05177)
T1 sequence (P05177 1-516): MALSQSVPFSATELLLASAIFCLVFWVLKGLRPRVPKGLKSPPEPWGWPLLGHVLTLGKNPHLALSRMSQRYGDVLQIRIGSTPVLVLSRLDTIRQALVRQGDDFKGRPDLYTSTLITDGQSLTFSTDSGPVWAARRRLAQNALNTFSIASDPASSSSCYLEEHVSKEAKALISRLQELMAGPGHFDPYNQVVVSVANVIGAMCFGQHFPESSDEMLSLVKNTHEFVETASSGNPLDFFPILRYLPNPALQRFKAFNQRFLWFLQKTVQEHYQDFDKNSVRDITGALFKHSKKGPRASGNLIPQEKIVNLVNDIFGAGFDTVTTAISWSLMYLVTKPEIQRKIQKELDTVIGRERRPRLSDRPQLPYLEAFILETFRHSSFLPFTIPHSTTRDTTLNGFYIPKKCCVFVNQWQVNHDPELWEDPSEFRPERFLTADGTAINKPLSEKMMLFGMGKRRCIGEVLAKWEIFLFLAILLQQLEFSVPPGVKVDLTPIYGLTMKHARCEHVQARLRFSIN

human CYP2C9 = human CYP2C9 (Homo sapiens, UniProt P11712)
human CYP2C19 = human CYP2C19 (Homo sapiens, UniProt P33261)
human CYP2D6 = human CYP2D6 (Homo sapiens, UniProt P10635)
CYP3A4 = CYP3A4 (Homo sapiens, UniProt P08684)
[2] = read-out: Luciferase IC50 (half-maximal inhibitory concentration)

human CYP2C9, sequence (P11712 whole entry): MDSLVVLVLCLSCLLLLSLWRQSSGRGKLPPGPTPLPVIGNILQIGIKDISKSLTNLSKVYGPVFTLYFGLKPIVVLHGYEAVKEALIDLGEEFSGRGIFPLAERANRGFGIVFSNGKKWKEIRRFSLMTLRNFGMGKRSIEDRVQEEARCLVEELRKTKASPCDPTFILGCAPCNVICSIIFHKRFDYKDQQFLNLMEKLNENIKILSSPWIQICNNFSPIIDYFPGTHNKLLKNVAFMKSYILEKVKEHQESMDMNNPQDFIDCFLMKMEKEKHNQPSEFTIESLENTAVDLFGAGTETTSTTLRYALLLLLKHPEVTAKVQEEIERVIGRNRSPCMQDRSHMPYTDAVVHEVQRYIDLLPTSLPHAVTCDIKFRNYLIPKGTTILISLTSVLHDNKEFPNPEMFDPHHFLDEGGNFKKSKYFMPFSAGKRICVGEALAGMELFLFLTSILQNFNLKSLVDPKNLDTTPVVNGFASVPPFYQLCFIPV
Photinus pyralis (firefly) luciferase, sequence (P08659 whole entry): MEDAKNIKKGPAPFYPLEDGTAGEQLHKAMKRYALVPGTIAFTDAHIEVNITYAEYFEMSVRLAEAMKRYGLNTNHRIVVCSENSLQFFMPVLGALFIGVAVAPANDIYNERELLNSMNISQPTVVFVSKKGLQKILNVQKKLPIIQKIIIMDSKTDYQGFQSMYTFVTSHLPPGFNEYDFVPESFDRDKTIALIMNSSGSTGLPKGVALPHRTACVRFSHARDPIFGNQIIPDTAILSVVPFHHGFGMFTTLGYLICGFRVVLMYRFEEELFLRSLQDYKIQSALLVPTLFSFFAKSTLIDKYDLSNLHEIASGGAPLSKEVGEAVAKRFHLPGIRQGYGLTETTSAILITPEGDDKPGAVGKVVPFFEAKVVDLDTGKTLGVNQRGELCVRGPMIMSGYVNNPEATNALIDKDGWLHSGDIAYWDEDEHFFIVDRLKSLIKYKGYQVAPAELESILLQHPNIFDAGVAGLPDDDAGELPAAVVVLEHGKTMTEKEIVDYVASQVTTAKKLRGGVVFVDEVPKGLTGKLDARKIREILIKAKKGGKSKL
CYP3A4, sequence (P08684 whole entry): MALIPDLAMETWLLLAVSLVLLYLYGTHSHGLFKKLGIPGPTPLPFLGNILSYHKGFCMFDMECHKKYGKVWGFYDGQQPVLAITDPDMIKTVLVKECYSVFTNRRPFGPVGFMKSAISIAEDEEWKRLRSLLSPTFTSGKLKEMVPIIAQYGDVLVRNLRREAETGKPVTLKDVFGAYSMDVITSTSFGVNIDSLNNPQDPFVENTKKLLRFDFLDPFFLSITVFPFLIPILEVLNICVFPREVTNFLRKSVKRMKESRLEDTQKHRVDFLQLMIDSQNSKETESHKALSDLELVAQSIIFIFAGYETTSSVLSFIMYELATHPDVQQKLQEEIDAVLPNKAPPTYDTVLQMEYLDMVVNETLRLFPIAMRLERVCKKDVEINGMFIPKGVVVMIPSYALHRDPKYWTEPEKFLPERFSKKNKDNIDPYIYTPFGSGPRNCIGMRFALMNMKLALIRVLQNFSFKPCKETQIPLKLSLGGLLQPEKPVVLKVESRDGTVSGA
human CYP2C19, sequence (P33261 whole entry): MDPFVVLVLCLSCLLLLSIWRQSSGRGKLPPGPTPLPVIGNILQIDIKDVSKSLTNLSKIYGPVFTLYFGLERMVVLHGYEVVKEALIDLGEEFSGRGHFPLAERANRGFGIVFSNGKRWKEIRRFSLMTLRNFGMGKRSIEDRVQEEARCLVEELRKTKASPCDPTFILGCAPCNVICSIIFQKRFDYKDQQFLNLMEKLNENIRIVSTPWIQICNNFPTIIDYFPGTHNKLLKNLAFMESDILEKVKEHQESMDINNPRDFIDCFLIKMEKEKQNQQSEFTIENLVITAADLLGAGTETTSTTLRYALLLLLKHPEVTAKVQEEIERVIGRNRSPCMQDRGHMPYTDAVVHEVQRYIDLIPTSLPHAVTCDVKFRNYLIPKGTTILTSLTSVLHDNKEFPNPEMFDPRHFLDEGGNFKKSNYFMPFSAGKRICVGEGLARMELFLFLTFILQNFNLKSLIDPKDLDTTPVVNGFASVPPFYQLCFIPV
human CYP2D6, sequence (P10635 whole entry): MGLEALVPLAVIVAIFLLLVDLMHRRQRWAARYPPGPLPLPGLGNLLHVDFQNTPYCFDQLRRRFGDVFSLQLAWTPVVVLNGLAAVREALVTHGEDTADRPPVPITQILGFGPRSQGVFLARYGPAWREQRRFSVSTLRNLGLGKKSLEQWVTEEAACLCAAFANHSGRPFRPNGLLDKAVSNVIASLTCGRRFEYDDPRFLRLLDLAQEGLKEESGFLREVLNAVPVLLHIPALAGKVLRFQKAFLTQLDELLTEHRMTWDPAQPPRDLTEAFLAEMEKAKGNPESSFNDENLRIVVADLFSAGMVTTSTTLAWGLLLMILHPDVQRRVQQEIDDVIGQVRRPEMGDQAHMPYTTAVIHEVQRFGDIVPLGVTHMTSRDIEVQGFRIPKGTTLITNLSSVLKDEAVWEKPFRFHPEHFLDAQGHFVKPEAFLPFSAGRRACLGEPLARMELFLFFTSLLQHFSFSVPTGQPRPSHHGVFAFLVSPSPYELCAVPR

Cc1[nH]cnc1C[C@H]1CCc2c(C)c3ccccc3n2C1=O.Cl [Fabesetron hydrochloride]
Luciferase IC50 (half-maximal inhibitory concentration) [1]: Inactive | pIC50 (human CYP1A2): 5.81 | CYP2C9 Efficacy (human CYP2C9): 0.51 ± 0.09 (-90 ± 4) % | pIC50 (human CYP2C19): 5.78 | CYP2D6 Efficacy (human CYP2D6): 3.52 ± 0.74 (-103 ± 4) % | pIC50 (CYP3A4): 5.72

O=S(=O)(Oc1ccc(Cl)cc1)c1ccccc1 [Fenson]
Luciferase Efficacy (in parenthesis) [1]: 76.75 ± 5.00 (-30 ± 10) % | pIC50 [1, 2]: 4.11 | CYP1A2 Efficacy (human CYP1A2): 5.64 ± 0.00 (-100 ± 5) % | CYP1A2 Efficacy (in parenthesis) (human CYP1A2): 5.64 ± 0 (-100 ± 5) % | pIC50 (human CYP1A2): 5.25 | AC50 (human CYP2C9): 34.3 µM | CYP2C9 Efficacy (human CYP2C9): 34.28 ± 2.23 (-89 ± 7) % | pIC50 (human CYP2C9): 4.46 | CYP2C19 Efficacy (human CYP2C19): 0.78 ± 0.29 (-135 ± 6) % | CYP2C19 Efficacy (in parenthesis) (human CYP2C19): 0.78 ± 0.29 (-135 ± 6) % | pIC50 (human CYP2C19): 6.11 | AC50 (human CYP2D6): 35.7 µM | CYP2D6 Efficacy (human CYP2D6): 35.73 ± 4.11 (-62 ± 14) % | pIC50 (human CYP2D6): 4.45 | AC50 (CYP3A4): 6.61 µM | CYP3A4 Efficacy (in parenthesis) (CYP3A4): 6.61 ± 0.84 (131 ± 4) % | CYP3A4 IC50 (half-maximal inhibitory concentration) (CYP3A4): 6.61 ± 0.84 (131 ± 4) µM

CCOC(=O)c1ccc(OC(=O)CCCCCN=C(N)N)cc1.CS(=O)(=O)O [Gabexate mesilate]
Luciferase IC50 (half-maximal inhibitory concentration) [1]: Inactive | CYP1A2 Efficacy (human CYP1A2): 20.14 ± 4.79 (-49 ± 20) % | pIC50 (human CYP1A2): 4.70 | AC50 (human CYP2C9): 10.3 µM | CYP2C9 Efficacy (human CYP2C9): 10.33 ± 4.77 (82 ± 30) % | CYP2C19 Efficacy (human CYP2C19): 10.33 ± 4.77 (-82 ± 30) % | pIC50 (human CYP2C19): 4.99 | AC50 (human CYP2D6): 0.27 µM | CYP2D6 Efficacy (human CYP2D6): 0.27 ± 0.04 (-102 ± 4) % | AC50 (CYP3A4): 21.2 µM | CYP3A4 IC50 (half-maximal inhibitory concentration) (CYP3A4): 21.25 ± 8.41 (37 ± 5) µM

CC[C@H]1C[C@@H]2C[C@H]3c4[nH]c5ccc(OC)cc5c4CCN(C2)[C@@H]13.Cl [Ibogaine hydrochloride]
Luciferase IC50 (half-maximal inhibitory concentration) [1]: Inactive | pIC50 (human CYP1A2): 4.21 | CYP2C9 Efficacy (human CYP2C9): 44.07 ± 15.72 (-45 ± 10) % | pIC50 (human CYP2C19): 4.08 | CYP2D6 Efficacy (human CYP2D6): 0.76 ± 0.1 (-105 ± 7) % | pIC50 (CYP3A4): 4.49

CC(C)C[C@H]1[C@@H](c2ccccc2)OC(=O)N1CCCN1CCCCCC1.Cl [Ipenoxazone hydrochloride]
Luciferase IC50 [1]: Inactive | CYP1A2 IC50 (human CYP1A2): Inactive | CYP2C9 IC50 (human CYP2C9): Inactive | pIC50 (human CYP2C19): 5.64 | CYP2D6 Efficacy (human CYP2D6): 0.44 ± 0.1 (-105 ± 4) % | pIC50 (CYP3A4): 6.06

Cc1oc(=O)oc1COC(=O)[C@@H]1N2C(=O)[C@@H](NC(=O)[C@H](N)c3ccccc3)[C@H]2SC1(C)C.Cl [Lenampicillin hydrochloride]
Luciferase IC50 (half-maximal inhibitory concentration) [1]: Inactive | CYP1A2 IC50 (half-maximal inhibitory concentration) (human CYP1A2): Inactive | pIC50 (human CYP2C9): 4.38 | CYP2C19 IC50 (half-maximal inhibitory concentration) (human CYP2C19): Inactive | CYP2D6 IC50 (half-maximal inhibitory concentration) (human CYP2D6): Inactive | pIC50 (CYP3A4): 6.21

O=S(=O)([O-])C(F)(F)C(F)(F)C(F)(F)C(F)(F)C(F)(F)C(F)(F)C(F)(F)C(F)(F)F.[Li+] [Lithium perfluorooctane sulfonate]
Luciferase IC50 (half-maximal inhibitory concentration) [1]: Inactive | CYP1A2 IC50 (half-maximal inhibitory concentration) (human CYP1A2): Inactive | pIC50 (human CYP2C9): 6.32 | pIC50 (human CYP2C19): 4.06 | CYP2D6 IC50 (half-maximal inhibitory concentration) (human CYP2D6): Inactive | CYP3A4 IC50 (half-maximal inhibitory concentration) (CYP3A4): Inactive

CN1[C@@H]2CCC(C)(C)[C@H]1C[C@H](OC(=O)C(O)(c1cccs1)c1cccs1)C2 [Mazaticol]
Luciferase IC50 (half-maximal inhibitory concentration) [1]: Inactive | CYP1A2 IC50 (half-maximal inhibitory concentration) (human CYP1A2): Inactive | CYP2C9 IC50 (half-maximal inhibitory concentration) (human CYP2C9): Inactive | CYP2C19 IC50 (half-maximal inhibitory concentration) (human CYP2C19): Inactive | pIC50 (human CYP2D6): 4.84 | pIC50 (CYP3A4): 6.66

CCOC(=O)c1c(C)n(C)c2ccc(O)cc12 [Mecarbinate]
Luciferase IC50 (half-maximal inhibitory concentration) [1]: Inactive | pIC50 (human CYP1A2): 6.27 | pIC50 (human CYP2C9): 4.89 | pIC50 (human CYP2C19): 5.14 | pIC50 (human CYP2D6): 4.75 | pIC50 (CYP3A4): 5.22

[Cl][Hg][Cl] [Mercuric chloride]
pIC50 ([1]; read-out: Luciferase IC50): 4.96 | pIC50 (human CYP1A2): 5.25 | pIC50 (human CYP2C9): 6.33 | pIC50 (human CYP2C19): 6.11 | pIC50 (human CYP2D6): 5.79 | pIC50 (CYP3A4): 5.65

CC(=O)[O-].CC(=O)[O-].[Hg+2] [Mercury(II) acetate]
Luciferase Efficacy (in parenthesis) [1]: 6.84 ± 0.45 (-85 ± 7) % | pIC50 [1, 2]: 5.16 | CYP1A2 Efficacy (in parenthesis) (human CYP1A2): 4.19 ± 0.75 (-100 ± 9) % | pIC50 (human CYP1A2): 5.38 | CYP2C9 Efficacy (in parenthesis) (human CYP2C9): 0.5 ± 0.06 (-104 ± 2) % | pIC50 (human CYP2C9): 6.30 | CYP2C19 Efficacy (in parenthesis) (human CYP2C19): 0.91 ± 0.47 (-137 ± 5) % | pIC50 (human CYP2C19): 6.04 | CYP2D6 Efficacy (in parenthesis) (human CYP2D6): 1.08 ± 0.07 (-72 ± 4) % | pIC50 (human CYP2D6): 5.97 | CYP3A4 Efficacy (in parenthesis) (CYP3A4): 2.86 ± 0.53 (-93 ± 1) % | pIC50 (CYP3A4): 5.54

[I][Hg][I] [Mercury(II) iodide]
pIC50 ([1]; read-out: Luciferase IC50): 5.28 | pIC50 (human CYP1A2): 5.43 | pIC50 (human CYP2C9): 6.27 | pIC50 (human CYP2C19): 5.98 | pIC50 (human CYP2D6): 5.78 | pIC50 (CYP3A4): 5.60

COc1cc(Cl)ccc1Oc1ccc(Cl)cc1Cl [Methyl triclosan]
pIC50 ([1]; read-out: Luciferase IC50): 4.31 | pIC50 (human CYP1A2): 4.82 | pIC50 (human CYP2C9): 4.92 | pIC50 (human CYP2C19): 6.14 | CYP2D6 IC50 (human CYP2D6): Inactive | pIC50 (CYP3A4): 4.15

COC(=O)c1cncn1C(C)c1ccccc1.Cl (stereo not shown) [Metomidate hydrochloride]
Luciferase IC50 (half-maximal inhibitory concentration) [1]: Inactive | CYP1A2 IC50 (half-maximal inhibitory concentration) (human CYP1A2): Inactive | pIC50 (human CYP2C9): 4.47 | pIC50 (human CYP2C19): 5.39 | pIC50 (human CYP2D6): 5.25 | pIC50 (CYP3A4): 6.60

CCCN(CCC)CCc1c[nH]c2ccccc12.Cl [N,N-Dipropyltryptamine hydrochloride]
Luciferase IC50 [1]: Inactive | pIC50 (human CYP1A2): 4.68 | CYP2C9 IC50 (human CYP2C9): Inactive | pIC50 (human CYP2C19): 4.18 | pIC50 (human CYP2D6): 6.51 | CYP3A4 IC50 (CYP3A4): Inactive

Cc1ccc([N+](=O)[O-])[c]2c1[O][Hg]2 [Nitromersol]
Luciferase Efficacy (in parenthesis) [1]: 12.48 ± 4.81 (-100 ± 9) % | pIC50 [1, 2]: 4.90 | CYP1A2 Efficacy (in parenthesis) (human CYP1A2): 4.36 ± 1.13 (-86 ± 7) % | pIC50 (human CYP1A2): 5.36 | CYP2C9 Efficacy (in parenthesis) (human CYP2C9): 0.87 ± 0 (-104 ± 2) % | pIC50 (human CYP2C9): 6.06 | CYP2C19 Efficacy (in parenthesis) (human CYP2C19): 1.28 ± 0.79 (-139 ± 25) % | pIC50 (human CYP2C19): 5.89 | CYP2D6 Efficacy (in parenthesis) (human CYP2D6): 0.78 ± 0.09 (-101 ± 2) % | pIC50 (human CYP2D6): 6.11 | CYP3A4 Efficacy (in parenthesis) (CYP3A4): 8.08 ± 0.55 (-86 ± 6) % | pIC50 (CYP3A4): 5.09

CN1CCN(C2Cc3ccccc3Sc3ccc(Cl)cc32)CC1.O=C(O)/C=C\C(=O)O (stereo not shown) [Octoclothepine maleate]
Luciferase IC50 [1]: Inactive | pIC50 (human CYP1A2): 4.55 | pIC50 (human CYP2C9): 4.51 | pIC50 (human CYP2C19): 4.94 | pIC50 (human CYP2D6): 6.59 | pIC50 (CYP3A4): 5.64

O=S(=O)([O-])C(F)(F)C(F)(F)C(F)(F)C(F)(F)C(F)(F)C(F)(F)C(F)(F)C(F)(F)F.[K+] [PFOS-K]
Luciferase IC50 (half-maximal inhibitory concentration) [1]: Inactive | CYP1A2 IC50 (half-maximal inhibitory concentration) (human CYP1A2): Inactive | pIC50 (human CYP2C9): 6.21 | pIC50 (human CYP2C19): 4.40 | CYP2D6 IC50 (half-maximal inhibitory concentration) (human CYP2D6): Inactive | CYP3A4 IC50 (half-maximal inhibitory concentration) (CYP3A4): Inactive

O=S(=O)(O)C(F)(F)C(F)(F)C(F)(F)C(F)(F)C(F)(F)C(F)(F)C(F)(F)C(F)(F)F [PFOS]
pIC50 [1, 2]: 4.15 | pIC50 (human CYP1A2): 4.49 | pIC50 (human CYP2C9): 6.29 | pIC50 (human CYP2C19): 4.63 | pIC50 (human CYP2D6): 4.55 | pIC50 (CYP3A4): 4.10
